One assay deals with T1, HLA-A*0201 (Homo sapiens, UniProt P04439, D140Y/D185E/D98H/E176V/E277Q/G131W/G231S/I119V/I121R/I166T/I218V/L300P/L318F/N151K/N90K/P208A/P217A/Q86G/Q94H/R138H/R169H/T345S).
T1 construct: the human tumoral cell T2 which expresses the HLA-A*0201 molecule; endogenous in cells; host or cells: T2 cells (human, TAP1/2 negative)
Kind of assay: Affinity of the peptide to T2 cell line: HLA-A2 labelling by FACS, relative to HIV pol 589-597. In kind it is binding. The source says:
The experimental protocol is similar to the one that was validated for peptides presented by the HLA-A*0201 (Tourdot et al., A general strategy to enhance immunogenicity of low-affinity HLA-A2.1-associated peptides: implication in the identification of cryptic tumor epitopes. Eur J Immunol. 2000 December; 30(12):3411-21). Affinity measurement of the peptides is achieved with the human tumoral cell T2 which expresses the HLA-A*0201 molecule, but which is TAP1/2 negative and incapable of presenting endogenous peptides.
T2 cells (2.10^5 cells per well) are incubated with decreasing concentrations of peptides from 100 μM to 1.5625 μM in a AIMV medium supplemented with 100 ng/μl of human β2m at 37° C. for 16 hours. Cells are then washed two times and marked with the anti-HLA-A2 antibody coupled to PE (clone BB7.2, BD Pharmagen).
The analysis is achieved by FACS (Guava Easy Cyte).
A2. Solubilisation of Peptides
Each peptide is solubilized by taking into account the amino acid composition. […] Other peptides are resuspended in water or PBS pH7.4.
The experimental protocol, materials and methods correspond to those outlined in Example 2, with the only difference that the above mentioned (poly)peptides were used.
A general note: Flow cytometry measures light scatter and fluorescence of single cells or particles in a stream.

The test system of assay [1] is T cell responses (IFNγ-producing splenocytes). Kind of assay: ELISPOT-IFNγ assay on splenocytes of vaccinated HLA-A2 humanized mice. Format: in vivo, HLA-A2 (CB6F1-Tg(HLA-A*0201/H2-Kb)A*0201) mice. The following applies: 100 μg vacc-pAg + 150 μg T13L + IFA s.c. d0 and d14; splenocytes d21 restimulated with vacc-pAg 10 μM. The source says:
Briefly, HLA-A2 humanized mice (HLA-A2 (CB6F1-Tg(HLA-A*0201/H2-Kb)A*0201) were assigned randomly (based on mouse sex and age) to experimental groups, wherein each group was immunized with a specific vaccination peptide (vacc-pAg) combined to a common helper peptide (h-pAg T13L; sequence: […]; SEQ ID NO: 860; Bhasin M, Singh H, Raghava GP (2003) MHCBN: a comprehensive database of MHC binding and non-binding peptides. Bioinformatics 19: 665-666) (as outlined in Table 5 below). The vacc-pAg were compared in couples (group 1 vs. group 2, group 1 vs. group 3; group 1 vs. group 4; group 5 vs. group 6; group 7 vs. group 8; group 9 vs. group 10). Thereby, both native and optimized versions of a single peptide were compared in each wave.
The peptides were provided as follows: • vacc-pAg: BIRC5-H, BIRC5-B1, BIRC5-B2, BIRC5-B3, FOXM1-H2, FOXM1-B2, EZH2-H2, EZH2-B2, 1L13RA2-H and IL13RA2-B; all produced and provided at a 4 mg/ml (4 mM) concentration; • h-pAg: T13L; Eurogentec batch 1713334 re-suspended in pure distilled water at a 10 mg/mL concentration
The animals were immunized on day 0 (d0) with a prime injection, and on d14 with a boost injection. Each mouse was injected s.c. at tail base with 100 μL of an oil-based emulsion that contained: • 100 μg of vacc-pAg (25 μL of 4 mg/mL stock per mouse); • 150 μg of h-pAg (15 μL of 10 mg/mL stock per mouse); • 10 μL of PBS to reach a total volume of 50 μL (per mouse); • Incomplete Freund's Adjuvant (IFA) added at 1:1 (v:v) ratio (50 μL per mouse).
A separate emulsion was prepared for each vacc-pAg, as follows: IFA reagent was added to the vacc-pAg/h-pAg/PBS mixture in a 15 mL tube and mixed on vortex for repeated cycles of 1 min until forming a thick emulsion.
Seven days after the boost injection (i.e. on d21), the animals were euthanized and the spleen was harvested. Splenocytes were prepared by mechanical disruption of the organ followed by 70 μm-filtering and Ficoll density gradient purification.
The splenocytes were immediately used in an ELISPOT-IFNγ assay (Table 6). Experimental conditions were repeated in triplicates, using 2*10^5 total splenocytes per well, and were cultured in presence of vacc-pAg (10 μM), lonomycin (0.1 μM) plus PMA (1 μM) or medium-only to assess for their capacity to secrete IFNγ. The commercial ELISPOT-IFNγ kit (Diaclone Kit Mujrine IFNγ ELISpot) was used following the manufacturer's instructions, and the assay was performed after about 19 h of incubation.
Spots were counted on a CTL ELISpot reader. Data plotting and statistical analysis were performed with the Prism-5 software (GraphPad Software Inc.).
The data were then normalized as a number of specific spots (the average counts obtained in the ‘medium only’ condition being subtracted) per 50*10^3 total T cells.
The individual average values (obtained from the triplicates) were next used to plot the group average values. As the functional capacity of T cells might vary from individual to individual, the data were also expressed as the percentage of the ionomycin plus PMA response per individual (see FIG. 8).

In assay [2] the test system is T-cells (IFN-secreting splenocytes). Kind of assay: Immunogenicity and cross-reactivity, IFN ELISpot on splenocytes of immunized HHD DR3 mice. Format: in vivo. As to the method: Concanavalin A (ConA) was used as a positive control.
The antigenic peptide of the invention BIRC5-B1 (SEQ ID NO: 32) and the corresponding human peptide BIRC5-H (SEQ ID NO: 593) were tested in distinct groups of male and female HHD DR3 mice expressing human HLA-A2 and HLA-DR3 MHC and lacking the murine H-2 class I and class II MHCs. Groups of 5 mice (male and female) were subcutaneously injected on days 0 and 14 with 100 μg of BIRC5-B1 or BIRC5-H, 150 μg of helper peptide (DR3) and IFA. On day 21, the mice were euthanized and splenocytes were prepared and stimulated in vitro with BIRC5-B1 or the human peptide BIRC5-H to assess their capacity to secrete IFN—as assessed by ELISpot. ConA was used as a positive control.
The antigenic peptide of the invention FOXM1-B2 (SEQ ID NO: 220) and the corresponding human peptide FOXM1-H2 (SEQ ID NO: 674) were tested in distinct groups of male and female HHD DR3 mice expressing human HLA-A2 and HLA-DR3 MHC and lacking the murine H-2 class I and class II MHCs. Groups of 5 mice (male and female) were subcutaneously injected on days 0 and 14 with 100 μg of FOXM1-B2 or FOXM1-H2, 150 μg of helper peptide (DR3) and IFA. On day 21, the mice were euthanized and splenocytes were prepared and stimulated in vitro with FOXM1-B2 or the human corresponding peptide FOXM1-H2 to assess their capacity to secrete IFN—as assessed by ELISpot. ConA was used as a positive control

Assay [3] has the same test system. Kind of assay: Immunogenicity and cross-reactivity, confirmation in HHD DR1 mice. The following applies: HHD DR3 and HHD DR1 mice, summary of Examples 4 to 6. Format: in vivo.

Take FMLGEFLKL [BIRC5-B1]: the “Concentration of peptide that induces 20% of HLA-A2 expression” value came to 2.7 µM in the assay with HLA-A*0201 (Example 2, Table 4) and 1.24 µM with HLA-A*0201 (Example 9, Table 9). Further, the “binding affinity to HLA-A*0201 compared with the other peptides tested (in words)” value in the assay with HLA-A*0201 (Examples 2, 7, 8, 9) was “considerably higher in vitro binding affinity”. Further, the “T cell responses in the ELISPOT-IFNγ assay compared to the respective human reference epitope” value in assay [1] was “improved T cell responses”. Further, in assay [2] (100 μg peptide + 150 μg helper peptide (DR3) + IFA s.c. days 0 and 14, splenocytes day 21), the “immunogenicity: immune response after challenge with the vaccination peptide or the human corresponding peptide (IFN ELISpot)” value was “strongly immunogenic”. Further, the “immune response against the corresponding human peptide (cross-reactivity)” value in assay [2] (same immunisation) is listed as “able to drive an effective immune response against human corresponding peptide”. Also, the immune responses induced entry in assay [3] is recorded as “induced strong immune responses”.

These data come from patent publication US12016910B2, “Antigenic peptides for prevention and treatment of cancer” (ENTEROME S.A., priority 2018, dated 2024).
